Values after ≈ are worked out from the molar mass of the structure shown. Peptide text beside a SMILES is read from it.
Tests used:
[1] = system: human kidney epithelial cells (293T); test: in vitro; type: cell-based
Description: (§1) FIGS. 2A and 2B illustrate cytotoxicity experimental result diagrams of antimicrobial peptide AS-hepc3(48-56) obtained by an MTS-PMS method, wherein FIG. 2A represents AML12 cells (alpha mouse liver 12 cells), FIG. 2B represents 293T cells, the abscissa represents an AS-hepc3(48-56) protein concentration (μM), and the ordinate represents a cell proliferation rate (%).
(§2) 1. Mouse hepatocytes (AML12) (mouse liver cells) and human kidney epithelial cells (293T) were selected to detect a cytotoxicity of the antimicrobial peptide AS-hepc3(48-56).
(§3) 2. A detailed method is as follows.
(§4) (6) Well-grown mouse hepatocytes (AML12) and human kidney epithelial cells (293T) were collected, a cell concentration was adjusted to 10^3-10^4 cells/mL, the cells were evenly blown, and 100 μL of strain suspension was placed in each well of a 96-well cell culture plate and was static cultured at a condition of 37° C. and […]. More than 50% of the strains were adhered to a wall.
(§5) (7) The medium is carefully sucked out, a corresponding medium comprising different concentrations (0 μM, 40 μM, or 80 μM) was added and was static cultured for 24 hours at a condition of 37° C. and […].
(§6) (8) After 20 μL of MTS-PMS solution was added and was incubated for 3 hours in the dark, an OD492 value (optical density reading at 492 nm wavelength) was detected by a microplate reader to evaluate the cytotoxicity of the antimicrobial peptide AS-hepc3(48-56).

[2] = system: mouse hepatocytes (AML12); test: in vitro; type: cell-based
Description: as §1, §2, §3, §4, §5, §6

in vitro = type: cell-based, human
Description: as §1, §2, §3, §4, §5, §6

[3] = system: Pseudomonas aeruginosa PAO1; test: Comparative experiment of drug resistance (serial passage, change of MIC); type: cell-based
Description: FIG. 1 illustrates a comparison of antimicrobial resistance of an antimicrobial peptide AS-hepc3(48-56) of Acanthopagrus schlegelii and antibiotic meropenem against Pseudomonas aeruginosa PAO1, wherein the abscissa represents time (days), and the ordinate represents a ratio of change of a minimum inhibition concentration (MIC) and an initial antimicrobial concentration.
1. Comparison of the antimicrobial peptide AS-hepc3(48-56) and antibiotic meropenem against Pseudomonas aeruginosa PAO1. Pseudomonas Aeruginosa PAO1 was purchased from the China General Microbiological Culture Collection Center, Institute of Microbiology, Chinese Academy of Sciences.
A detailed method is as follows:
(1) Preserved Pseudomonas aeruginosa PAO1 was streaked on MH plates and was cultured at 37° C. overnight;
(2) A single clone was screened and was cultured in MH liquid medium at 37° C. and 200 rpm to a logarithmic stage;
(3) The strain was corrected at 5000 g for 2 minutes, the strain was resuspended in 10 mM sodium phosphate buffer (pH=7.4), and the strain was finally diluted with a mixture of the 10 mM sodium phosphate buffer and the MH liquid medium to enable a final concentration of the stain to be 5×10^5 cfu/mL;
(4) Synthesized powder of the antimicrobial peptide AS-hepc3(48-56) was dissolved in sterile Milli-Q water, and a peptide concentration was diluted to 8 μM, 12 μM, 16 μM, 24 μM, 32 μM, 48 μM, 64 μM, or 96 μM in double ratios;
(5) Antibiotic meropenem powder was dissolved in sterile Milli-Q water to configure a 5 mg/mL reserved solution, filtered by a 0.22 μm filter membrane, and diluted to different work concentrations being 0.0625 μg/mL, 0.125 μg/mL, 0.25 μg/mL, 0.5 μg/mL, 1 μg/mL, 2 μg/mL, 4 μg/mL, 8 μg/mL, 16 μg/mL, 32 μg/mL, 48 μg/mL, 64 μg/mL, 96 μg/mL, 128 μg/mL, 192 μg/mL, 256 μg/mL, or 512 μg/mL; and
(6) On a 96-well cell culture plate, each test strain was arranged into a blank control group, a negative control group, and a test group, and three parallel groups of each test group were as follows: • a) Blank control group: 50 μL of test peptide sample and 50 μL of medium; • b) Negative control group: 50 μL of sterile Milli-Q water and 50 μL of strain suspension; and • c) Test group: 50 μL of the test peptide sample and 50 μL of the strain suspension.
The 96-well cell culture plate was placed in a 37° C. incubator and was cultured for 18-24 hours, and MIC results in the test group were observed. The strain having the maximum peptide concentration at which the growth of the strain could be observed was repeatedly diluted thousand-fold, and 50 μL was repeatedly taken for a next generation of antimicrobial experiments for 150 generations.

[4] = system: drug-resistant clinical Klebsiella pneumoniae isolate QZ18106; type: cell-based; details: K. pneumoniae QZ18106
Description: (§7) 1. Strains were as follows: Pseudomonas aeruginosa PAO1, drug-resistant clinical Pseudomonas aeruginosa isolates QZ19121, QZ19122, QZ19123, QZ19124, and QZ19125, drug-resistant clinical Acinetobacter baumannii isolates QZ18050 and QZ18055, clinical isolation of resistant Staphylococcus aureus QZ18090 and QZ18091, drug-resistant clinical Klebsiella pneumoniae isolate QZ18106, and drug-resistant clinical Escherichia coli isolates QZ18109 and QZ18110. Pseudomonas aeruginosa PAO1 was purchased from the China General Microbiological Culture Collection Center, Institute of Microbiology, Chinese Academy of Sciences, and the clinical isolates were from the Laboratory of Second Affiliated Hospital of Fujian Medical University.
as §3
(§8) (1) Preserved strains were streaked on MH plates (Mueller-Hinton agar plates) and were cultured at 37° C. overnight;
(§9) (2) A single clone was screened and was cultured in a MH liquid medium (Mueller-Hinton agar liquid medium) at 37° C. and 200 rpm (revolutions per minute) to a logarithmic stage;
(§10) (3) The strains were collected at 5000 g (i.e., a 5000 g centrifugal force) for 2 minutes, the strains were resuspended with a 10 mM (mmol/L) sodium phosphate buffer (pH=7.4), and the strains were finally diluted with the MH liquid medium to enable a final concentration of the strains to be 5×10^5 cfu/mL;
(§11) (4) Synthesized powder of the antimicrobial peptide AS-hepc3(48-56) was dissolved in sterile Milli-Q water, and a peptide concentration (i.e., a concentration of the antimicrobial peptide AS-hepc3(48-56)) was diluted to 2 μM, 4 μM, 8 μM, 16 μM, 32 μM, or 64 μM in double ratios; and
(§12) (5) On a polypropylene sterile 96-well culture plate, each test strain was arranged into a blank control group, a negative control group, and a test group, and three parallel groups of each test group were as follows: • a) Blank control group: 50 μL of test peptide sample (i.e., the antimicrobial peptide AS-hepc3(48-56)) and 50 μL of medium (i.e., the Mueller-Hinton agar liquid medium); • b) Negative control group: 50 μL of sterile Milli-Q water and 50 μL of strain suspension; and • c) Test group: 50 μL of test peptide sample and 50 μL of the strain suspension.
(§13) The polypropylene sterile 96-well culture plate was placed in a 37° C. incubator for 18-24 hours, and MIC results in the test group were observed. After the test group was pipetted and mixed, an appropriate amount of the strain was drawn and spread on the MH plate and was cultured at 37° C. overnight, and MBC results were observed.
(§14) Annotations: MIC: minimum inhibitory concentration (μM), which is represented by a-b; a is a maximum peptide concentration at which a growth of the strain can be observed by naked eyes, and b is a minimum peptide concentration at which no growth of the strain can be observed by the naked eyes. MBC: Minimum bactericidal concentration (μM), which is a concentration that kills 99.9% of microbes.

[5] = system: resistant Staphylococcus aureus QZ18090; type: cell-based; details: S. aureus QZ18090
Description: as §7, §3, §8, §9, §10, §11, §12, §13, §14

[6] = system: drug-resistant clinical Pseudomonas aeruginosa isolate QZ19121; type: cell-based; details: P. aeruginosa QZ19121
Description: as §7, §3, §8, §9, §10, §11, §12, §13, §14

[7] = system: drug-resistant clinical Acinetobacter baumannii isolate QZ18050; type: cell-based; details: A. baumannii QZ18050
Description: as §7, §3, §8, §9, §10, §11, §12, §13, §14

[8] = system: Pseudomonas aeruginosa PAO1; type: cell-based
Description: as §7, §3, §8, §9, §10, §11, §12, §13, §14

[9] = system: drug-resistant clinical Acinetobacter baumannii isolate QZ18055; type: cell-based; details: A. baumannii QZ18055
Description: as §7, §3, §8, §9, §10, §11, §12, §13, §14

[10] = system: resistant Staphylococcus aureus QZ18091; type: cell-based; details: S. aureus QZ18091
Description: as §7, §3, §8, §9, §10, §11, §12, §13, §14

[11] = system: drug-resistant clinical Pseudomonas aeruginosa isolate QZ19125; type: cell-based; details: P. aeruginosa QZ19125
Description: as §7, §3, §8, §9, §10, §11, §12, §13, §14

[12] = system: drug-resistant clinical Pseudomonas aeruginosa isolate QZ19124; type: cell-based; details: P. aeruginosa QZ19124
Description: as §7, §3, §8, §9, §10, §11, §12, §13, §14

[13] = system: drug-resistant clinical Pseudomonas aeruginosa isolate QZ19122; type: cell-based; details: P. aeruginosa QZ19122
Description: as §7, §3, §8, §9, §10, §11, §12, §13, §14

[14] = system: drug-resistant clinical Pseudomonas aeruginosa isolate QZ19123; type: cell-based; details: P. aeruginosa QZ19123
Description: as §7, §3, §8, §9, §10, §11, §12, §13, §14

[15] = system: drug-resistant clinical Escherichia coli isolate QZ18109; type: cell-based; details: E. coli QZ18109
Description: as §7, §3, §8, §9, §10, §11, §12, §13, §14

[16] = system: drug-resistant clinical Escherichia coli isolate QZ18110; type: cell-based; details: E. coli QZ18110
Description: as §7, §3, §8, §9, §10, §11, §12, §13, §14

[17] = human, 293T cells (human kidney epithelial cells)
[18] = mouse, AML12 cells (mouse hepatocytes)

With `N=C(N)NCCC[C@H](NC(=O)[C@H](CS)NC(=O)[C@H](CCCNC(=N)N)NC(=O)[C@H](CCCNC(=N)N)NC(=O)[C@H](CCCNC(=N)N)NC(=O)[C@@H](N)CCCNC(=N)N)C(=O)N[C@@H](Cc1ccccc1)C(=O)N[C@@H](CS)C(=O)N[C@@H](CS)C(=O)O` [AS-hepc3(48-56), Arg-Arg-Arg-Arg-Cys-Arg-Phe-Cys-Cys] (H-RRRRCRFCC-OH; N-terminus and C-terminus assumed) as the compound, how does the “cytotoxicity (in words)” value [1] read?
Its value is “no cytotoxicity”.

What about the “cytotoxicity (in words)” value [2] of the same compound?
Its value is “no cytotoxicity”.

And the viability at 24 h, 40 µM (in vitro; [17])?
The viability at 24 h, 40 µM was over 95%.

And the viability at 24 h, 80 µM (in vitro; [17])?
The viability at 24 h, 80 µM was over 95%.

What about the viability at 24 h, 40 µM (in vitro; [18]) of the same compound?
The viability at 24 h, 40 µM was over 95%.

And the viability at 24 h, 80 µM (in vitro; [18])?
The viability at 24 h, 80 µM was over 95%.

What about the “anti-Pseudomonas aeruginosa MIC value relative to initial MIC value” ([3]; after 150 days of continuous use) of the same compound?
Its value is “twice”.

And the MBC [4]?
The MBC was over 32 µM.

What about the MIC [4] of the same compound?
The MIC was over 32 µM.

And the MBC [5]?
The MBC was 8 µM (≈ 10 µg/mL).

And the MIC [5]?
The MIC was 4 to 8 µM.

And the MBC [6]?
Its MBC is 16 µM (≈ 20.1 µg/mL).

And the MIC [6]?
The MIC was 4 to 8 µM.

And the MBC [7]?
The MBC was over 32 µM.

What about the MIC [7] of the same compound?
Its MIC is over 32 µM.

And the MBC [8]?
The MBC was 8 µM (≈ 10 µg/mL).

And the MIC [8]?
The MIC was 4 to 8 µM.

And the MBC [9]?
The MBC was over 32 µM.

What about the MIC [9] of the same compound?
Its MIC is over 32 µM.

And the MBC [10]?
The MBC was 8 µM (≈ 10 µg/mL).

And the MIC [10]?
Its MIC is 4 to 8 µM.

And the MBC [11]?
The MBC was 16 µM (≈ 20.1 µg/mL).

What about the MIC [11] of the same compound?
Its MIC is 8 to 16 µM.

What about the MBC [12] of the same compound?
Its MBC is 16 µM (≈ 20.1 µg/mL).

What about the MIC [12] of the same compound?
The MIC was 4 to 8 µM.

And the MBC [13]?
The MBC was 16 µM (≈ 20.1 µg/mL).

What about the MIC [13] of the same compound?
The MIC was 4 to 8 µM.

And the MBC [14]?
The MBC was 16 µM (≈ 20.1 µg/mL).

And the MIC [14]?
The MIC was 4 to 8 µM.

What about the MBC [15] of the same compound?
The MBC was 16 µM (≈ 20.1 µg/mL).

What about the MIC [15] of the same compound?
Its MIC is 4 to 8 µM.

And the MBC [16]?
The MBC was 8 µM (≈ 10 µg/mL).

And the MIC [16]?
Its MIC is 4 to 8 µM.

With `C[C@@H](O)[C@H]1C(=O)N2C(C(=O)O)=C(S[C@@H]3CN[C@H](C(=O)N(C)C)C3)[C@H](C)[C@H]12` [meropenem] as the compound, how does the “anti-Pseudomonas aeruginosa MIC value relative to initial MIC value” ([3]; after 3 days of continuous use) read?
The value was 4 times.

What about the “anti-Pseudomonas aeruginosa MIC value relative to initial MIC value” ([3]; after 10 days of continuous use) of the same compound?
The value was 16 times.

What about the “anti-Pseudomonas aeruginosa MIC value relative to initial MIC value” ([3]; after 90 days of use) of the same compound?
The value was 1024 times.

Source: patent US11299514B2, “Antimicrobial peptide AS-hepc3(48-56) of Acanthopagrus schlegelii and method thereof” (Xiamen University, priority 2019, dated 2022)
